# Data: US4472404A, “8-Quinolinyl carbamates and their use as urinary tract antimicrobials” (priority 1982, dated 1984)
# Where two headings read alike, the source gives them in different places.
# Legend:
# Assay type in all cases: cell-based
# Candida albicans = test: Agar-plate minimum inhibitory concentration (Example 12); settings: read-out: Minimum Inhibitory Concentration
# Description: (§1) The test compound was added to molten agar as a solution (when conveniently soluble in a solvent such as dimethylformamide) or a suspension forming a mixture having a concentration of 0.05 percent (500 ppm). The mixture was stirred and poured into plates to harden. When hardened, the plates were inoculated with various bacteria and fungi. The bacteria-inoculated plates were incubated at 37° C. for 24 hours, while the fungi-inoculated plates were incubated for about 72-120 hours. Following incubation, the plates were examined for growth or inhibition of the respective organisms.
# (§2) After the initial readings, compounds showing sufficient activity were re-tested at various concentrations to determine the minimum inhibitory concentration (in ppm) of the compounds of the invention against the various bacteria and fungi tested.
# Bacillus subtilis = test: as above; settings: read-out: Minimum Inhibitory Concentration
# Description: as §1, §2
# Candida pelliculosa = test: as above; settings: Hansenula anomala, read-out: Minimum Inhibitory Concentration
# Description: as §1, §2
# Aspergillus niger = test: as above; settings: read-out: Minimum Inhibitory Concentration
# Description: as §1, §2
# Streptococcus mutans = test: as above; settings: read-out: Minimum Inhibitory Concentration
# Description: as §1, §2
# Salmonella typhosa = test: as above; settings: Salmonella enterica, read-out: Minimum Inhibitory Concentration
# Description: as §1, §2
# Ceratocystis ips = test: as above; settings: read-out: Minimum Inhibitory Concentration
# Description: as §1, §2
# [1] = test system: Trichophyton mentagrophytes; test: as above; settings: read-out: Minimum Inhibitory Concentration
# Description: as §1, §2
# [2] = test system: Escherichia coli ATCC 9723; test: Minimum inhibitory concentration, urinary tract organisms (Example 13)
# Description: as §1, §2
# (§3) Following a procedure substantially the same as that described in Example 12, the minimum inhibitory concentration for the compounds described herein was determined for various organisms representative of those commonly associated with urinary tract infections.
# (§4) The organisms used in this procedure and the abbreviations designated in Table 3 are as follows: […]
# [3] = test system: Klebsiella pneumoniae M-2; test: as above
# Description: as §1, §2, §3, §4
# [4] = test system: Enterobacter aerogenes ATCC 13048; test: as above; settings: Klebsiella aerogenes
# Description: as §1, §2, §3, §4
# Proteus mirabilis 470/1 = test: as above
# Description: as §1, §2, §3, §4
# [5] = test system: Pseudomonas aeruginosa PRD-10; test: as above
# Description: as §1, §2, §3, §4
# [6] = test system: Klebsiella pneumoniae M-6; test: as above
# Description: as §1, §2, §3, §4
# [7] = test system: Escherichia coli ATCC 11229; test: as above
# Description: as §1, §2, §3, §4
# [8] = test system: Klebsiella pneumoniae ATCC 23357; test: as above
# Description: as §1, §2, §3, §4
# [9] = test system: Staphylococcus aureus ATCC 25923; test: as above
# Description: as §1, §2, §3, §4
# [10] = test system: Pseudomonas aeruginosa ATCC 27853; test: as above
# Description: as §1, §2, §3, §4
# [11] = test system: Escherichia coli ATCC 4157; test: as above
# Description: as §1, §2, §3, §4
# Serratia marcescens M-1 = test: as above
# Description: as §1, §2, §3, §4
# [12] = test system: Pseudomonas aeruginosa ATCC 10145; test: as above
# Description: as §1, §2, §3, §4
# [13] = test system: Klebsiella pneumoniae M-1; test: as above
# Description: as §1, §2, §3, §4
# [14] = test system: Pseudomonas aeruginosa ATCC 7700; test: as above
# Description: as §1, §2, §3, §4
# [15] = test system: Escherichia coli ATCC 25922; test: as above
# Description: as §1, §2, §3, §4
# [16] = Candida pelliculosa, agar, 72-120 hours
# [17] = Salmonella typhosa, agar, 37° C., 24 hours
# [18] = Ceratocystis ips, agar, 72-120 hours
# [19] = ATCC9723, Ec 9723, read-out: Minimum Inhibitory Concentration
# [20] = M2, Kp M-2, read-out: Minimum Inhibitory Concentration
# [21] = ATCC13048, Ea 13048, read-out: Minimum Inhibitory Concentration
# [22] = Pm 470/1, read-out: Minimum Inhibitory Concentration
# [23] = PRD10, Pa PRD-10, read-out: Minimum Inhibitory Concentration
# [24] = M6, Kp M-6, read-out: Minimum Inhibitory Concentration
# [25] = ATCC11229, Ec 11229, read-out: Minimum Inhibitory Concentration
# [26] = ATCC23357, Kp 23357, read-out: Minimum Inhibitory Concentration
# [27] = ATCC25923, Sa 25923, read-out: Minimum Inhibitory Concentration
# [28] = ATCC27853, Pa 27853, read-out: Minimum Inhibitory Concentration
# [29] = ATCC4157, Ec 4157, read-out: Minimum Inhibitory Concentration
# [30] = M1, Sr M-1, read-out: Minimum Inhibitory Concentration
# [31] = ATCC10145, Pa 10145, read-out: Minimum Inhibitory Concentration
# [32] = M1, Kp M-1, read-out: Minimum Inhibitory Concentration
# [33] = ATCC7700, Pa 7700, read-out: Minimum Inhibitory Concentration
# [34] = ATCC25922, Ec 25922, read-out: Minimum Inhibitory Concentration
# [35] = M1, read-out: Minimum Inhibitory Concentration
compound,measurement,setting,value
"CCOC(=O)CNC(=O)Oc1ccc([N+](=O)[O-])c2cccnc12 [Example 5, Ethyl N-(((5-nitro-8-quinolinyl)oxy)carbonyl)glycinate]",MIC,"Candida albicans; agar, 72-120 hours",50 µg/mL
same,MIC,"Bacillus subtilis; agar, 37° C., 24 hours",5 µg/mL
same,MIC,Candida pelliculosa; [16],50 µg/mL
same,MIC,"Aspergillus niger; agar, 72-120 hours",50 µg/mL
same,MIC,"Streptococcus mutans; agar, 37° C., 24 hours",> 500 µg/mL
same,MIC,Salmonella typhosa; [17],5 µg/mL
same,MIC,Ceratocystis ips; [18],100 µg/mL
same,MIC,"[1]; agar, 72-120 hours",50 µg/mL
same,MIC,[2]; [19],25 µg/mL
same,MIC,[3]; [20],25 µg/mL
same,MIC,[4]; [21],25 µg/mL
same,MIC,Proteus mirabilis 470/1; [22],10 µg/mL
same,MIC,[5]; [23],50 µg/mL
same,MIC,[6]; [24],25 µg/mL
same,MIC,[7]; [25],25 µg/mL
same,MIC,[8]; [26],10 µg/mL
same,MIC,[9]; [27],25 µg/mL
same,MIC,[10]; [28],75 µg/mL
same,MIC,[11]; [29],25 µg/mL
same,MIC,Serratia marcescens M-1; [30],50 µg/mL
same,MIC,[12]; [31],25 µg/mL
same,MIC,[13]; [32],25 µg/mL
same,MIC,[14]; [33],100 µg/mL
same,MIC,[15]; [34],10 µg/mL
"CCOC(=O)CNC(=O)Oc1ccc(Cl)c2cccnc12.CS(=O)(=O)O [Example 7, Ethyl N-(((5-chloro-8quinolinyl)oxy)carbonyl)glycinate methanesulfonic acid salt]",MIC,"Candida albicans; agar, 72-120 hours",50 µg/mL
same,MIC,"Bacillus subtilis; agar, 37° C., 24 hours",5 µg/mL
same,MIC,Candida pelliculosa; [16],50 µg/mL
same,MIC,"Aspergillus niger; agar, 72-120 hours",50 µg/mL
same,MIC,"Streptococcus mutans; agar, 37° C., 24 hours",500 µg/mL
same,MIC,Salmonella typhosa; [17],10 µg/mL
same,MIC,Ceratocystis ips; [18],50 µg/mL
same,MIC,"[1]; agar, 72-120 hours",10 µg/mL
same,MIC,[2]; [19],50 µg/mL
same,MIC,[3]; [20],75 µg/mL
same,MIC,[4]; [21],75 µg/mL
same,MIC,Proteus mirabilis 470/1; [22],75 µg/mL
same,MIC,[5]; [23],250 µg/mL
same,MIC,[6]; [24],50 µg/mL
same,MIC,[7]; [25],50 µg/mL
same,MIC,[8]; [26],75 µg/mL
same,MIC,[9]; [27],< 5 µg/mL
same,MIC,[10]; [28],250 µg/mL
same,MIC,[11]; [29],50 µg/mL
same,MIC,Serratia marcescens M-1; [30],100 µg/mL
same,MIC,[12]; [31],75 µg/mL
same,MIC,[13]; [32],75 µg/mL
same,MIC,[14]; [33],250 µg/mL
same,MIC,[15]; [34],25 µg/mL
"CCOC(=O)CNC(=O)Oc1ccc(Cl)c2cccnc12.Cl [Example 8, Ethyl N-(((5-chloro-8-quinolinyl)oxy)carbonyl)glycinate hydrochloride salt]",MIC,"Candida albicans; agar, 72-120 hours",10 µg/mL
same,MIC,"Bacillus subtilis; agar, 37° C., 24 hours",1 µg/mL
same,MIC,Candida pelliculosa; [16],10 µg/mL
same,MIC,"Aspergillus niger; agar, 72-120 hours",10 µg/mL
same,MIC,"Streptococcus mutans; agar, 37° C., 24 hours",> 500 µg/mL
same,MIC,Salmonella typhosa; [17],50 µg/mL
same,MIC,Ceratocystis ips; [18],50 µg/mL
same,MIC,"[1]; agar, 72-120 hours",10 µg/mL
same,MIC,[2]; [19],25 µg/mL
same,MIC,[3]; [20],50 µg/mL
same,MIC,[4]; [21],50 µg/mL
same,MIC,Proteus mirabilis 470/1; [22],50 µg/mL
same,MIC,[5]; [23],100 µg/mL
same,MIC,[6]; [24],25 µg/mL
same,MIC,[7]; [25],25 µg/mL
same,MIC,[8]; [26],50 µg/mL
same,MIC,[9]; [27],10 µg/mL
same,MIC,[10]; [28],100 µg/mL
same,MIC,[11]; [29],25 µg/mL
same,MIC,Serratia marcescens M-1; [30],75 µg/mL
same,MIC,[12]; [31],75 µg/mL
same,MIC,[13]; [32],50 µg/mL
same,MIC,[14]; [33],100 µg/mL
same,MIC,[15]; [34],25 µg/mL
"CCOC(=O)CNC(=O)Oc1cccc2cccnc12 [Example 9, Ethyl N-(((8-quinolinyl)oxy)carbonyl)glycinate]",MIC,"Candida albicans; agar, 72-120 hours",100 µg/mL
same,MIC,"Bacillus subtilis; agar, 37° C., 24 hours",10 µg/mL
same,MIC,Candida pelliculosa; [16],50 µg/mL
same,MIC,"Aspergillus niger; agar, 72-120 hours",100 µg/mL
same,MIC,"Streptococcus mutans; agar, 37° C., 24 hours",5 µg/mL
same,MIC,Salmonella typhosa; [17],50 µg/mL
same,MIC,Ceratocystis ips; [18],100 µg/mL
same,MIC,"[1]; agar, 72-120 hours",50 µg/mL
same,MIC,[2]; [19],75 µg/mL
same,MIC,[3]; [20],100 µg/mL
same,MIC,[4]; [21],100 µg/mL
same,MIC,Proteus mirabilis 470/1; [22],75 µg/mL
same,MIC,[5]; [23],500 µg/mL
same,MIC,[6]; [24],75 µg/mL
same,MIC,[7]; [25],75 µg/mL
same,MIC,[8]; [26],50 µg/mL
same,MIC,[9]; [27],10 µg/mL
same,MIC,[10]; [28],250 µg/mL
same,MIC,[11]; [29],75 µg/mL
same,MIC,Serratia marcescens M-1; [30],100 µg/mL
same,MIC,[12]; [31],50 µg/mL
same,MIC,[13]; [32],100 µg/mL
same,MIC,[14]; [33],500 µg/mL
same,MIC,[15]; [34],75 µg/mL
"CNC(=O)Oc1c(Cl)cc(Cl)c2cccnc12 [Example 10, 5,7-Dichloro-8quinolinyl N-methylcarbamate]",MIC,Candida albicans,5 µg/mL
same,MIC,Bacillus subtilis; 24 h,0.5 µg/mL
same,MIC,Candida pelliculosa,5 µg/mL
same,MIC,Aspergillus niger,10 µg/mL
same,MIC,Streptococcus mutans; 24 h,10 µg/mL
same,MIC,"Salmonella typhosa; TYPHOSA, 24 h",10 µg/mL
same,MIC,Ceratocystis ips,50 µg/mL
same,MIC,[1],50 µg/mL
same,MIC,"[2]; ATCC9723, read-out: Minimum Inhibitory Concentration",10 µg/mL
same,MIC,"[3]; M2, read-out: Minimum Inhibitory Concentration",25 µg/mL
same,MIC,"[4]; ATCC13048, read-out: Minimum Inhibitory Concentration",25 µg/mL
same,MIC,"Proteus mirabilis 470/1; 470/1, read-out: Minimum Inhibitory Concentration",10 µg/mL
same,MIC,"[5]; PRD10, read-out: Minimum Inhibitory Concentration",25 µg/mL
same,MIC,"[6]; M6, read-out: Minimum Inhibitory Concentration",25 µg/mL
same,MIC,"[7]; ATCC11229, read-out: Minimum Inhibitory Concentration",10 µg/mL
same,MIC,"[8]; ATCC23357, read-out: Minimum Inhibitory Concentration",10 µg/mL
same,MIC,"[9]; ATCC25923, read-out: Minimum Inhibitory Concentration",< 5 µg/mL
same,MIC,"[10]; ATCC27853, read-out: Minimum Inhibitory Concentration",50 µg/mL
same,MIC,"[11]; ATCC4157, read-out: Minimum Inhibitory Concentration",10 µg/mL
same,MIC,Serratia marcescens M-1; [35],25 µg/mL
same,MIC,"[12]; ATCC10145, read-out: Minimum Inhibitory Concentration",10 µg/mL
same,MIC,[13]; [35],25 µg/mL
same,MIC,"[14]; ATCC7700, read-out: Minimum Inhibitory Concentration",50 µg/mL
same,MIC,"[15]; ATCC25922, read-out: Minimum Inhibitory Concentration",10 µg/mL
